Measured values as given in patent publication US20100016313A1, “INTESTINAL ALKALINE PHOSPHATASE MODULATORS AND USES THEREOF” (Burnham Institute for Medical Research, priority 2008, published 2010).
One block for each molecule: values may come before it.

Key:
human IAP = target: T1, human IAP (Homo sapiens, UniProt P09923); test: IAP assay using CDP-Star (chemiluminescent, dose response); assay type: biochemical; settings: IAP modulators, Tables A-H, positive = inhibitor; for IC50: negative Hill coefficient = activator; for n (Hill coefficient): negative = activator
T1 construct: made in house; host or cells: COS-1 cells, transient expression from pCMV-Script; conditioned serum-free medium used as enzyme stock
T1 sequence (P09923 20-503 limits assumed): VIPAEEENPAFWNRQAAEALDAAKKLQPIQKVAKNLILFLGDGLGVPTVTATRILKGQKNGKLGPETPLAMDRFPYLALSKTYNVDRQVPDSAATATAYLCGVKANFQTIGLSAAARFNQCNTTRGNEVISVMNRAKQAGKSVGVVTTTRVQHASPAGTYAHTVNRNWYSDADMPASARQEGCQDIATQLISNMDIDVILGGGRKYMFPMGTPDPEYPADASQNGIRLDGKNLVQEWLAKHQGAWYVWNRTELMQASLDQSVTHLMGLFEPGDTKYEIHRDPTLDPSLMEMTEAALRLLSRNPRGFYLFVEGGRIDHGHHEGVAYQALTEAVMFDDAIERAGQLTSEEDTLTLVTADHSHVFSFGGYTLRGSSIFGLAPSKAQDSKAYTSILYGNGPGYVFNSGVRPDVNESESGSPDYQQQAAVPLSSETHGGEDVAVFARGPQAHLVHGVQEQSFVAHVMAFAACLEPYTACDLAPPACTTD
Text: An expression vector pCMV-Script containing cDNA for human IAP, TNAP, PLAP, GCAP, mouse TNAP, dIAP, EAP or gIAP in secreted form (FLAG-tagged) is transfected into COS-1 cells for transient expression using a standard electroporation method. The GPI anchoring site is replaced by a FLAG sequence to make the proteins secreted into the media as well as to test their kinetics in a form immobilized by anti-FLAG antibody (Narisawa, et al, 2007). Medium is changed to serum free medium Opti-MEM (Invitrogen) 24 h later, and media containing secreted proteins was collected 66 hr after electroporation. Conditioned medium filtered by a 2 μm cellulose acetate membrane is supplemented with 0.1% BSA, aliquotted and stored at −80° C.
Human IAP is produced on a large scale to be used in the primary high throughput screening. For a maximum of 200,000 wells including a blank and negative control in each plate, approximately 1600 ml of the recombinant human IAP working solution (8 μl/well×200,000) is used. The working solution is a 1:80 dilution of the stock solution that has AP activity showing ΔOD405 (velocity) ˜300 in 5 min pNPP calorimetric assay. Therefore a minimum of 20 ml of the stock solution (1600÷80) is needed. An enzyme stock is prepared from ten 15 cm φ plates of COS-1 cells using 100 μg plasmid DNA [ten plates×(10 μg DNA/1×10^7 cells per 15 cm φ plate)].
Compound aliquots (4 μL at […] in 10% DMSO) are added to 8 μL of human IAP working solution of a the human IAP stock solution diluted 1:80 in assay buffer (250 mM DEA, pH 9.8, −2.5 mM MgCl2, −0.05 μM ZnCl2). The solution of substrate CDP-Star, disodium 2-chloro-5-(4-methoxyspiro{1,2-dioxetane-3,2′(5′-chloro)-tricyclo[3.3.1.1]3,7 decan}-4-yl)-1-phenyl phosphate (New England Biolabs), (8 μL of 125 μM in water) is added to each well. […] Dispensing of human IAP working solution and CDP-Star is processed using a WellMate bulk dispenser (Matrix). Plates (white 384-well small volume Greiner 784075) are incubated at room temperature for 30 min, and the luminescence signal is measured using a PerkinElmer EnVision multi-mode plate reader. L-Phenylalanine (1 mM final concentration) and 2% DMSO is utilized as an inhibition control and blank, respectively. Data analysis is processed using CBIS software (ChemInnovations, Inc).
The compound is diluted ([…] to 0.03 mM) and incubated with the human IAP enzyme for 30 min prior to addition of substrate. At the same time, human TNAP, human PLAP, human GCAP, mouse TNAP, mouse dIAP, mouse EAP and mouse gIAP is tested to determine enzyme specificity.

[1] = Kinetic parameters of recombinant mouse dIAP, gIAP and EAP using p-NPP as substrate; assay type: biochemical
Text: The epithelium of the mouse small intestine expresses two intestine specific AP genes, Akp3 and Akp6, and low levels of Akp5, which is not intestine specific (Narisawa, et al, 2007). AP proteins encoded by Akp3, Akp5 and Akp6 were designated duodenal IAP or dIAP, embryonic AP or EAP and global IAP or gIAP, respectively.

[2] = p-NPP as substrate, pH 9.8, means ± SD

IC50 (human IAP): > 100 µM
Molecule: O=c1cc(CCO)c2c(-c3ccccc3)n[nH]c2o1 [Compound E7, 4-(2-hydroxyethyl)-3-phenylpyrano[2,3-c]pyrazol-6(1H)-one]

n (Hill coefficient) (human IAP): −2.03
IC50 (human IAP): 13.8 µM
Molecule: O=C1C2CCCCC2C(=O)N1c1ncn[nH]1 (centres unmarked) [Compound F1, 2-(1H-1,2,4-triazol-5-yl)-hexahydro-1H-isoindole-1,3(2H)-dione]

n (Hill coefficient) (human IAP): 1.01
IC50 (human IAP): 0.0613 µM
Molecule: O=C1C2CCCCC2C(=O)N1c1nc(Cc2ccccc2)n[nH]1 (centres unmarked) [Compound F2, 2-(3-benzyl-1H-1,2,4-triazol-5-yl)-hexahydro-1H-isoindole-1,3(2H)-dione]

n (Hill coefficient) (human IAP): 0.694
IC50 (human IAP): 1.75 µM
Molecule: O=C1C2CCCCC2C(=O)N1c1nc(CCc2ccccc2)n[nH]1 (centres unmarked) [Compound F3, 2-(3-phenethyl-1H-1,2,4-triazol-5-yl)-hexahydro-1H-isoindole-1,3(2H)-dione]

n (Hill coefficient) (human IAP): −1.61
IC50 (human IAP): 34.5 µM
Molecule: O=C1C2CC=CCC2C(=O)N1c1ncn[nH]1 (centres unmarked) [Compound F4, 2-(1H-1,2,4-triazol-5-yl)-3a,4,7,7a-tetrahydro-1H-isoindole-1,3(2H)-dione]

n (Hill coefficient) (human IAP): 0.8895
IC50 (human IAP): 0.0625 µM
Molecule: O=C1C2CC=CCC2C(=O)N1c1nc(-c2ccccc2)n[nH]1 (centres unmarked) [Compound F5, 2-(3-phenyl-1H-1,2,4-triazol-5-yl)-3a,4,7,7a-tetrahydro-1H-isoindole-1,3(2H)-dione]

n (Hill coefficient) (human IAP): 0.894
IC50 (human IAP): 0.411 µM
Molecule: O=C1C2CC=CCC2C(=O)N1c1nc(-c2ccco2)n[nH]1 (centres unmarked) [Compound F6, 2-[3-(furan-2-yl)-1H-1,2,4-triazol-5-yl]-3a,4,7,7a-tetrahydro-1H-isoindole-1,3(2H)-dione]

n (Hill coefficient) (human IAP): 0.927
IC50 (human IAP): 1.77 µM
Molecule: O=C1C2CC=CCC2C(=O)N1c1nc(-c2cccnc2)n[nH]1 (centres unmarked) [Compound F7, 2-[3-(pyridin-3-yl)-1H-1,2,4-triazol-5-yl)-3a,4,7,7a-tetrahydro-1H-isoindole-1,3(2H)-dione]

n (Hill coefficient) (human IAP): 1.28
IC50 (human IAP): 0.503 µM
Molecule: O=C1C2CC=CCC2C(=O)N1c1nc(Cc2ccccc2)n[nH]1 (centres unmarked) [Compound F8, 2-(3-benzyl-1H-1,2,4-triazol-5-yl)-3a,4,7,7a-tetrahydro-1H-isoindole-1,3(2H)-dione]

n (Hill coefficient) (human IAP): 0.616
IC50 (human IAP): 0.724 µM
Molecule: O=C1C2CC=CCC2C(=O)N1c1nc(CCc2ccccc2)n[nH]1 (centres unmarked) [Compound F9, 2-(3-phenethyl-1H-1,2,4-triazol-5-yl)-3a,4,7,7a-tetrahydro-1H-isoindole-1,3(2H)-dione]

n (Hill coefficient) (human IAP): 0.871
Molecule: O=C1C2C3C=CC(C3)C2C(=O)N1c1nc(CCc2ccccc2)n[nH]1 (centres unmarked) [Compound F10]

n (Hill coefficient) (human IAP): 0.5445
Molecule: O=C1c2ccccc2C(=O)N1c1nc(Cc2ccccc2)n[nH]1 [Compound F11, 2-(3-benzyl-1H-1,2,4-triazol-5-yl)isoindoline-1,3-dione]

IC50 (human IAP): > 100 µM
Molecule: Nc1nc(N2C(=O)C3CC=CCC3C2=O)nn1-c1ccccc1 (centres unmarked) [Compound F12, 2-(5-amino-1-phenyl-1H-1,2,4-triazol-3-yl)-3a,4,7,7a-tetrahydro-1H-isoindole-1,3(2H)-dione]

n (Hill coefficient) (human IAP): 0.716
Molecule: COc1ccc(Br)cc1S(=O)(=O)Nc1cnc2ccccc2c1 [Compound G1, 5-bromo-2-methoxy-N-(quinolin-3-yl)benzenesulfonamide]

IC50 (human IAP): > 100 µM
Molecule: COc1ccc(OC)c(S(=O)(=O)Nc2cnc3ccccc3c2)c1 [Compound G2, 2,5-dimethoxy-N-(quinolin-3-yl)benzenesulfonamide]

IC50 (human IAP): > 100 µM
Molecule: CCOc1ccc(Cl)cc1S(=O)(=O)Nc1cccnc1 [Compound G3, 5-chloro-2-ethoxy-N-(pyridin-3-yl)benzenesulfonamide]

IC50 (human IAP): > 100 µM
Molecule: COc1cc(C)c(Cl)cc1S(=O)(=O)Nc1cccnc1 [Compound G4, 2-methoxy-4-methyl-5-chloro-N-(pyridin-3-yl)benzenesulfonamide]

IC50 (human IAP): > 100 µM
Molecule: Cc1ccccc1S(=O)(=O)Nc1cc2ccccc2nc1Cl [Compound G6, N-(2-chloroquinolin-3-yl)-2-methylbenzenesulfonamide]

IC50 (human IAP): > 100 µM
Molecule: O=C(CSc1nnc[nH]1)NCCOc1ccccc1 [Compound H1, 2-(4H-1,2,4-triazol-3-ylthio)-N-(2-phenoxyethyl)acetamide]

n (Hill coefficient) (human IAP): −0.563
IC50 (human IAP): 86.4 µM
Molecule: CC(=O)Nc1nnc(SCc2ccc(Br)cc2)[nH]1 [Compound H2, N-[5-(4-bromobenzylthio)-4H-1,2,4-triazol-3-yl)acetamide]

n (Hill coefficient) (human IAP): −1.32
IC50 (human IAP): 30.5 µM
Molecule: Cn1ccnc1Cc1ncnc(Nc2ccccc2)n1 [Compound H3, 4-[(1-methyl-4H-imidazol-2-yl)methyl]-N-phenyl-1,3,5-triazin-2-amine]

IC50 (human IAP): > 100 µM
Molecule: Cc1ccc(Cl)c(N2C(=O)C(Cl)C(N3CCN(C)CC3)C2=O)c1Cl (centres unmarked) [Compound H5, 3-chloro-1-(2,6-dichloro-3-methylphenyl)-4-(4-methylpiperazin-1-yl)pyrrolidine-2,5-dione]

B1: EAP: recombinant mouse embryonic alkaline phosphatase encoded by Akp5 (protein, UniProt P24823 19-502, looked up)
Alkaline phosphatase, germ …: VIPVEEENPAFWNRKAAEALDAAKKLKPIQTSAKNLVILMGDGMGVSTVTATRILKGQQQGHLGPETQLAMDRFPHMALSKTYNTDKQIPDSAGTGTAFLCGVKTNMKVIGLSAAARFNQCNTTWGNEVVSVMHRAKKAGKSVGVVTTTSVQHASPAGTYAHTVNRGWYSDAQMPASALQDGCKDISTQLISNMDIDVILGGGRKFMFPKGTPDQEYPTDTKQAGTRLDGRNLVQEWLAKHQGARYVWNRSELIQASLNRSVTHLMGLFEPNDMKYEIHRDPAQDPSLAEMTEVAVRMLSRNPKGFYLFVEGGRIDHGHHETVAYRALTEAVMFDSAVDKADKLTSEQDTMILVTADHSHVFSFGGYTQRGASIFGLAPFKAEDGKSFTSILYGNGPGYKLHNGARADVTEEESSNPTYQQQAAVPLSSETHSGEDVAIFARGPQAHLVHGVQEQNYIAHVMAFAACLEPYTDCGLASPAGQSS
Km [1, 2]: 140 ± 30 µM
kcat [1, 2]: 8.4 ± 1.1 s⁻¹

B2: dIAP: recombinant mouse duodenal intestinal alkaline phosphatase encoded by Akp3 (protein, UniProt P24822 20-528, looked up)
Intestinal-type alkaline …: VIPVEEENPAFWNKKAAEALDAAKKLQPIQTSAKNLIIFLGDGMGVPTVTATRILKGQLEGHLGPETPLAMDRFPYMALSKTYSVDRQVPDSASTATAYLCGVKTNYKTIGLSAAARFDQCNTTFGNEVFSVMYRAKKAGKSVGVVTTTRVQHASPSGTYVHTVNRNWYGDADMPASALREGCKDIATQLISNMDINVILGGGRKYMFPAGTPDPEYPNDANETGTRLDGRNLVQEWLSKHQGSQYVWNREQLIQKAQDPSVTYLMGLFEPVDTKFDIQRDPLMDPSLKDMTETAVKVLSRNPKGFYLFVEGGRIDRGHHLGTAYLALTEAVMFDLAIERASQLTSERDTLTIVTADHSHVFSFGGYTLRGTSIFGLAPLNALDGKPYTSILYGNGPGYVGTGERPNVTAAESSGSSYRRQAAVPVKSETHGGEDVAIFARGPQAHLVHGVQEQNYIAHVMASAGCLEPYTDCGLAPPADESQTTTTTRQTTITTTTTTTTTTTTPVHN
Km [1, 2]: 1100 ± 340 µM
kcat [1, 2]: 339 ± 13 s⁻¹
Km ([1]; pNPP assay, recombinant enzyme, repeated in text): 1100 ± 340 µM
